US20050112179A1, “Method to reduce stool odor of companion animals” (priority 2003, published 2005)
Like-named read-outs stand apart in the source and are kept apart here.

Tests used:
flatulence = details: dogs, literature report; cited from earlier work
stool odor compounds [1] = details: 3 weeks; for Alcohols / Aldehydes / Carboxylic acids / Esters / Heterocycles / Indoles / Ketones / Phenols / Thiols/Sulfides: dog stool, area under chromatogram peak
Method: (§1) An experiment was conducted to characterize the effects of zinc acetate on stool odor compounds in dogs. To a control food, which was a dry food composed of kibbles containing a base level of 150 ppm zinc in the form of zinc acetate, various amounts of zinc in the form of zinc acetate were added as a coating on the kibbles. This was done by hand coating (sprinkling) fine zinc acetate powder on the kibble in a rotating drum in a two-step coating process after all other topical ingredients had been added by in-line enrobing. Ten dogs were fed control food with no added zinc, ten dogs were fed control food with 400 ppm zinc added, ten dogs were fed control food with 600 ppm zinc added, and ten dogs were fed control food with 900 ppm zinc added. The dogs were fed one of these diets for three weeks. At the end of three weeks, stool samples were collected and analyzed by putting a standard amount of stool in a glass container and incubating a solid phase microextraction fiber in the headspace. Volatiles bound to the fiber were eluted onto a gas chromatograph for analysis. The compounds were identified using a […].
(§2) The numbers indicate relative differences as measured by the area under the peak in a chromatogram.

stool odor compounds [2] = details: one month; for Alcohols / Aldehydes / Carboxylic acids / Esters / Heterocycles / Indoles / Ketones / Phenols / Thiols/Sulfides: cat stool, area under chromatogram peak
Method: as §1
An experiment was conducted to characterize the effects of zinc acetate on stool odor compounds in cats. To a control food, which was a dry food composed of kibbles containing a base level of 160 ppm zinc in the form of zinc acetate, various amounts of zinc were added in the form of zinc acetate as in Example 1. Eight cats were fed control food with no added zinc, eight cats were fed control food with 860 ppm zinc acetate added, seven cats were fed control food with 1200 ppm zinc acetate added, and seven cats were fed control food with 1800 ppm zinc acetate added. The cats were fed one of these diets for one month. At the end of the month, stool samples were collected and analyzed as described in Example 1.
as §2

[3] = 400 ppm added zinc on control food
[4] = 600 ppm added zinc on control food
[5] = 900 ppm added zinc on control food
[6] = 860 ppm added zinc on control food
[7] = 1200 ppm added zinc on control food
[8] = 1800 ppm added zinc on control food

In the case of `CC(=O)[O-].CC(=O)[O-].[Zn+2]` [zinc acetate], the “number of flatulent episodes” value (flatulence) is listed as “decreased”, the odor of gas (flatulence) is listed as “decreased” and the total gas production (flatulence) is listed as “decreased”. For the same compound, the Alcohols (stool odor compounds [1]; [3]) was 17.3 ± 12.5 ×10^5, the Aldehydes (stool odor compounds [1]; [3]) was 0.45 ± 0.3 ×10^3 and the Carboxylic acids (stool odor compounds [1]; [3]) was 3.79 ± 3.55 ×10^4. For the same compound, the Esters (stool odor compounds [1]; [3]) was 34.3 ± 34.0 ×10^5, the Heterocycles (stool odor compounds [1]; [3]) was 0.94 ± 0.37 ×10^4 and the Indoles (stool odor compounds [1]; [3]) was 2.64 ± 2.19 ×10^4. The Ketones (stool odor compounds [1]; [3]) was 179 ± 0.89 ×10^6, the Phenols (stool odor compounds [1]; [3]) was 9.62 ± 6.0 ×10^4 and the Thiols/Sulfides (stool odor compounds [1]; [3]) was 8.69 ± 6.16 ×10^4. For the same compound, the Alcohols (stool odor compounds [1]; [4]) was 12.3 ± 0.9 ×10^5, the Aldehydes (stool odor compounds [1]; [4]) was 0.56 ± 0.51 ×10^3 and the Carboxylic acids (stool odor compounds [1]; [4]) was 22.7 ± 32.2 ×10^4. For the same compound, the Esters (stool odor compounds [1]; [4]) was 34.1 ± 34.4 ×10^5, the Heterocycles (stool odor compounds [1]; [4]) was 1.19 ± 0.54 ×10^4 and the Indoles (stool odor compounds [1]; [4]) was 2.0 ± 0.86 ×10^4. For the same compound, the Ketones (stool odor compounds [1]; [4]) was 201 ± 66.5 ×10^6, the Phenols (stool odor compounds [1]; [4]) was 9.17 ± 5.64 ×10^4 and the Thiols/Sulfides (stool odor compounds [1]; [4]) was 5.14 ± 2.4 ×10^4. For the same compound, the Alcohols (stool odor compounds [1]; [5]) was 23.4 ± 14.3 ×10^5, the Aldehydes (stool odor compounds [1]; [5]) was 1.09 ± 1.29 ×10^3 and the Carboxylic acids (stool odor compounds [1]; [5]) was 27.2 ± 21.2 ×10^4. For the same compound, the Esters (stool odor compounds [1]; [5]) was 32.6 ± 0.9 ×10^5, the Heterocycles (stool odor compounds [1]; [5]) was 1.13 ± 0.49 ×10^4 and the Indoles (stool odor compounds [1]; [5]) was 1.78 ± 2.45 ×10^4. The Ketones (stool odor compounds [1]; [5]) was 160 ± 63.1 ×10^6, the Phenols (stool odor compounds [1]; [5]) was 4.08 ± 3.58 ×10^4 and the Thiols/Sulfides (stool odor compounds [1]; [5]) was 4.91 ± 1.3 ×10^4. For the same compound, the “Effect of addition of zinc to the food on stool odor compound levels (in words)” value (stool odor compounds [1]; dogs, 400-900 ppm added zinc vs control food) was “decreased levels of phenols, thiols and sulfides and indoles”, the Alcohols (stool odor compounds [2]; [6]) was 13.2 ± 27 ×10^4 and the Aldehydes (stool odor compounds [2]; [6]) was 5.6 ± 3.6 ×10^4. The Carboxylic acids (stool odor compounds [2]; [6]) was 317 ± 160 ×10^4, the Esters (stool odor compounds [2]; [6]) was 78.4 ± 22.9 ×10^4 and the Heterocycles (stool odor compounds [2]; [6]) was 0.62 ± 0.13 ×10^4. For the same compound, the Indoles (stool odor compounds [2]; [6]) was 0.39 ± 0.3 ×10^4, the Ketones (stool odor compounds [2]; [6]) was 25.6 ± 8.14 ×10^4 and the Phenols (stool odor compounds [2]; [6]) was 10.3 ± 4.3 ×10^4. The Thiols/Sulfides (stool odor compounds [2]; [6]) was 6.2 ± 2.3 ×10^4, the Alcohols (stool odor compounds [2]; [7]) was 6.87 ± 10.8 ×10^4 and the Aldehydes (stool odor compounds [2]; [7]) was 3.6 ± 1.7 ×10^4. For the same compound, the Carboxylic acids (stool odor compounds [2]; [7]) was 225 ± 78.1 ×10^4, the Esters (stool odor compounds [2]; [7]) was 76.9 ± 47.5 ×10^4 and the Heterocycles (stool odor compounds [2]; [7]) was 0.62 ± 0.22 ×10^4. The Indoles (stool odor compounds [2]; [7]) was 0.88 ± 0.62 ×10^4, the Ketones (stool odor compounds [2]; [7]) was 60.7 ± 38.1 ×10^4 and the Phenols (stool odor compounds [2]; [7]) was 12.6 ± 4.7 ×10^4. For the same compound, the Thiols/Sulfides (stool odor compounds [2]; [7]) was 7.7 ± 3.4 ×10^4, the Alcohols (stool odor compounds [2]; [8]) was 15.1 ± 23.3 ×10^4 and the Aldehydes (stool odor compounds [2]; [8]) was 1.9 ± 1.6 ×10^4. For the same compound, the Carboxylic acids (stool odor compounds [2]; [8]) was 146 ± 144 ×10^4, the Esters (stool odor compounds [2]; [8]) was 28.7 ± 1.8 ×10^4 and the Heterocycles (stool odor compounds [2]; [8]) was 0.46 ± 0.17 ×10^4. For the same compound, the Indoles (stool odor compounds [2]; [8]) was 2.3 ± 1.5 ×10^4, the Ketones (stool odor compounds [2]; [8]) was 42.2 ± 26.2 ×10^4 and the Phenols (stool odor compounds [2]; [8]) was 7.2 ± 2.7 ×10^4. For the same compound, the Thiols/Sulfides (stool odor compounds [2]; [8]) was 6.8 ± 3.9 ×10^4 and the “Effect of addition of zinc to the food on stool odor compound levels (in words)” value (stool odor compounds [2]; cats, 860-1800 ppm added zinc vs control food) was “decreased stool levels of heterocycles, indoles, aldehydes and phenols”.
